Read-outs that look alike come from different tables or passages of the source.
Key:
FASN enzyme = FASN enzyme (Homo sapiens, UniProt P49327); assay: Enzymatic Assay for FASN Inhibitors; format: biochemical
Summary of the method: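 40 nM FASN preincubated with compound 60 min at 25° C in HEPES pH 7.3 buffer with 0.04% Triton X-100. Then 20 μM acetyl-CoA, 60 μM malonyl-CoA and 100 μM NADPH added for 90 min, quenched with CPM thiol probe; fluorescence 360/530 nm, IC50 by four-parameter fit.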

PC3 cells = assay: Cell Proliferation Assays for FASN Inhibitors (PC3 cells, MTT); format: cell-based; settings: Homo sapiens, PC-3, 96 h
Description: The effects of the FASN inhibitors on cultured cancer cell proliferation were studies with cell proliferation assays. PC3 cells were maintained at standard culture media (F12K media supplemented with 10% fetal bovine serum, 1×MEM nonessential amino acid and 1× penicillin/streptomycin). 2000-3000 cells/100 μL/well was seeded in a 96-well clear culture plate. The cells were incubated overnight in 5% CO2 at 37° C. for attachment. Cell media were removed and replaced with F12K media containing 10% lipid reduced serum and compound. The final DMSO concentration is 0.1%. The cells were maintained in 5% CO2 at 37° C. for 4 days. The viability of cells was determined by MTT assays. The IC50 of a given compound was calculated by fitting the dose response curve with a four parameter logistic equation.

[1] = read-out: IC50 (uM) < 0.5, 10% lipid reduced serum, 4 days, Table 3-1

Chain of FASN enzyme (P49327 whole entry): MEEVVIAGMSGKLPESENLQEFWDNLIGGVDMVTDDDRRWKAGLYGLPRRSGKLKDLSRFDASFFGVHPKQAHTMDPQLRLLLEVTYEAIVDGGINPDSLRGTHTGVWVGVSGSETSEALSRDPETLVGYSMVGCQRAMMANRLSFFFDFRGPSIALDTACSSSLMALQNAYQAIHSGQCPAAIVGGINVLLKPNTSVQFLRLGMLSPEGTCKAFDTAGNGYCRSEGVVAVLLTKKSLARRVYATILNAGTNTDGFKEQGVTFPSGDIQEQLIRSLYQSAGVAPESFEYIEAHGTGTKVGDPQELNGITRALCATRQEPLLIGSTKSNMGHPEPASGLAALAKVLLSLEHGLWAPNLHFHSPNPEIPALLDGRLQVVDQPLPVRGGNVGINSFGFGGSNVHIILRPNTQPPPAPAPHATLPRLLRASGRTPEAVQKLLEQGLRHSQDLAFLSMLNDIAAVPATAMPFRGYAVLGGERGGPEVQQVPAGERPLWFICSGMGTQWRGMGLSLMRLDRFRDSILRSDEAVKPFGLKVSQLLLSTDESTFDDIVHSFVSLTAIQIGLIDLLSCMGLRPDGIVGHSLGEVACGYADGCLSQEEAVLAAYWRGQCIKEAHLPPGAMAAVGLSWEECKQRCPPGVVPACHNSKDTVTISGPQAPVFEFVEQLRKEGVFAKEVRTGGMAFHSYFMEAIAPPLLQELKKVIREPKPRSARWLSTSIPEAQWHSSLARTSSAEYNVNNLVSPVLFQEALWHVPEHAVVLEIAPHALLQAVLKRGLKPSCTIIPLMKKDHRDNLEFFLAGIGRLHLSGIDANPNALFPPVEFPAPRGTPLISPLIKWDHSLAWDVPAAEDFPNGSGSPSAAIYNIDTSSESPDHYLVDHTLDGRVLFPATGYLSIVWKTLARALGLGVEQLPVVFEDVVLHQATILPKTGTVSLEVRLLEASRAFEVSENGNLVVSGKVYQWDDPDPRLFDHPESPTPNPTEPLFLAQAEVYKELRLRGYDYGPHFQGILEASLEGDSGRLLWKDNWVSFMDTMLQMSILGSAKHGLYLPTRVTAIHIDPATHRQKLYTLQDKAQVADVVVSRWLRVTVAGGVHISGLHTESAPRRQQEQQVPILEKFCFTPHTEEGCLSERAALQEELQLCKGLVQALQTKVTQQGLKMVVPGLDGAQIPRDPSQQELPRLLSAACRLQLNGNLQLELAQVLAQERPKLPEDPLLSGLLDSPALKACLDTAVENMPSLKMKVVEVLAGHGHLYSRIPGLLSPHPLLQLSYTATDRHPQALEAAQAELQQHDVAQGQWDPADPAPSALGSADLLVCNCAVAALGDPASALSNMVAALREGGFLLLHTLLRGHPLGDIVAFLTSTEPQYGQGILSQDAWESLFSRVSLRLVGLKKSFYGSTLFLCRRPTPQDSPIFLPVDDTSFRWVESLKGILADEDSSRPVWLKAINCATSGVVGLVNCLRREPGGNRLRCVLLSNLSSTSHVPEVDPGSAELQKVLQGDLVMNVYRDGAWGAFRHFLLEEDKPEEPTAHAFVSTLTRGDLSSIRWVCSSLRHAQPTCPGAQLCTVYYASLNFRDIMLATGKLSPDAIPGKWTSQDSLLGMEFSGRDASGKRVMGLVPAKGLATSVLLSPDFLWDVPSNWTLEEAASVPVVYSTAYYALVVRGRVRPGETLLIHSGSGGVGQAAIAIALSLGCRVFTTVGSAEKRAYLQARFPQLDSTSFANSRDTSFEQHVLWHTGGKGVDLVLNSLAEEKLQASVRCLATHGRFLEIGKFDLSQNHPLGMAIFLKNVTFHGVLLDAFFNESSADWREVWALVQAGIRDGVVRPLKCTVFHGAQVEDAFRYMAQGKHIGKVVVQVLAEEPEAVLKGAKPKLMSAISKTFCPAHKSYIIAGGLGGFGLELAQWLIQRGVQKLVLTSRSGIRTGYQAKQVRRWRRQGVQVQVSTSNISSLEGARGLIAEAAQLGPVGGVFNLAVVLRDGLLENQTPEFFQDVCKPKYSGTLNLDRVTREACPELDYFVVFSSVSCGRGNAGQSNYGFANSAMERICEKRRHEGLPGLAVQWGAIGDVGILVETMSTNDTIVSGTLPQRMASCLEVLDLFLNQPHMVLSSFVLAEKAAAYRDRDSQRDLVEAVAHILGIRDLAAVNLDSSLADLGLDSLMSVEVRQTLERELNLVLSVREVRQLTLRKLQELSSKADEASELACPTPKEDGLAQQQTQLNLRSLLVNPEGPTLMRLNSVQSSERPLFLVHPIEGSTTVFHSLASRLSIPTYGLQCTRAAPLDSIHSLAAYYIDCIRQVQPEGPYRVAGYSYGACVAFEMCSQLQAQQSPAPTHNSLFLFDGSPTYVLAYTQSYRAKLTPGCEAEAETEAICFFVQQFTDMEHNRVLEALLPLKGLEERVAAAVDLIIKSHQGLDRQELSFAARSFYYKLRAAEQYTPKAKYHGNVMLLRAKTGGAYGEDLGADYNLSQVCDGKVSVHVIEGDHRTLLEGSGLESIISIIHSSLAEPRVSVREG

IC50 (FASN enzyme)	IC50 (PC3 cells; [1])	IC50 (FASN enzyme; FASN enzymatic assay, Table 2-2)	IC50 (PC3 cells; read-out: IC50 (uM) ≥ 0.5, 10% lipid reduced serum, 4 days, Table 3-2)	Structure (SMILES)
< 500 nM	< 0.5 µM			O=C(c1ccc(-c2cnc3ccccc3c2)cc1Cl)N1CCN(C(=O)C2(O)CC2)CC1
	< 0.5 µM	500 to 5000 nM		O=C(c1ccc(-c2nc3ccccc3[nH]2)cc1)N1CCN(C(=O)C2(O)CC2)CC1
< 500 nM			≥ 0.5 µM	COc1cc(-n2cccn2)ccc1-c1ccc(C(=O)N2CCN(C(=O)C3(O)CC3)CC2)cc1
< 500 nM	< 0.5 µM			O=C(c1ccc(-c2cn3ccccc3n2)cc1)N1CCN(C(=O)C2(O)CC2)CC1
< 500 nM	< 0.5 µM			O=C(c1ccc(-c2cc3ccccn3n2)cc1)N1CCN(C(=O)C2(O)CC2)CC1
< 500 nM	< 0.5 µM			N#Cc1c[nH]c2ccc(-c3ccc(C(=O)N4CCN(C(=O)C5(O)CC5)CC4)cc3Cl)cc12
< 500 nM	< 0.5 µM			N#Cc1c[nH]c2ccc(-c3ccc(C(=O)N4CCN(C(=O)C5(O)CC5)CC4)c(Cl)c3)cc12
< 500 nM	< 0.5 µM			CC(C)n1cc(C#N)c2cc(-c3ccc(C(=O)N4CCN(C(=O)C5(O)CC5)CC4)cc3)ccc21
	< 0.5 µM			O=C(c1ccc(-c2ccc3[nH]c(=O)ccc3c2)cc1)N1CCN(C(=O)C2(O)CC2)CC1
< 500 nM	< 0.5 µM			CC(C)S(=O)(=O)Nc1cccc(-c2ccc(C(=O)N3CCN(C(=O)C4(O)CC4)CC3)cc2)c1
< 500 nM	< 0.5 µM			O=C(c1ccc(-c2cn3ccccc3n2)cc1Cl)N1CCN(C(=O)C2(O)CC2)CC1 [1-({4-[(2-chloro-4-{imidazo[1,2-a]pyridin-2-yl}phenyl)carbonyl]piperazin-1-yl}carbonyl)cyclopropan-1-ol]
< 500 nM	< 0.5 µM			O=C(c1ccc2nc(-c3ccccc3)sc2c1)N1CCN(C(=O)C2(O)CC2)CC1 [1-({4-[(2-phenyl-1,3-benzothiazol-6-yl)carbonyl]piperazin-1-yl}carbonyl)cyclopropan-1-ol]
< 500 nM	< 0.5 µM			O=C(c1ccc(-c2ccc3[nH]ccc3n2)cc1)N1CCN(C(=O)C2(O)CC2)CC1 [1-({4-[(4-{1H-pyrrolo[3,2-b]pyridin-5-yl}phenyl)carbonyl]piperazin-1-yl}carbonyl)cyclopropan-1-ol]
< 500 nM	< 0.5 µM			O=C(c1ccc(-c2ccc3occc3n2)cc1)N1CCN(C(=O)C2(O)CC2)CC1 [1-({4-[(4-{furo[3,2-b]pyridin-5-yl}phenyl)carbonyl]piperazin-1-yl}carbonyl)cyclopropan-1-ol]
< 500 nM	< 0.5 µM			O=C(c1ccc(-c2ccc3nccn3n2)cc1)N1CCN(C(=O)C2(O)CC2)CC1 [1-({4-[(4-{imidazo[1,2-b]pyridazin-6-yl}phenyl)carbonyl]piperazin-1-yl}carbonyl)cyclopropan-1-ol]
< 500 nM	< 0.5 µM			O=C(c1ccc(-c2ccc3ccccc3n2)c(F)c1F)N1CCN(C(=O)C2(O)CC2)CC1 [1-[(4-{[2,3-difluoro-4-(quinolin-2-yl)phenyl]carbonyl}piperazin-1-yl)carbonyl]cyclopropan-1-ol]
< 500 nM	< 0.5 µM			Cn1ccc2cc(-c3ccc(C(=O)N4CCN(C(=O)C5(O)CC5)CC4)c(Cl)c3)ccc21 [1-[(4-{[2-chloro-4-(1-methyl-1H-indol-5-yl)phenyl]carbonyl}piperazin-1-yl)carbonyl]cyclopropan-1-ol]
< 500 nM	< 0.5 µM			O=C(c1ccc(-c2ccc3ncccc3c2)cc1Cl)N1CCN(C(=O)C2(O)CC2)CC1 [1-[(4-{[2-chloro-4-(quinolin-6-yl)phenyl]carbonyl}piperazin-1-yl)carbonyl]cyclopropan-1-ol]
< 500 nM	< 0.5 µM			Cn1ccc2cc(-c3ccc(C(=O)N4CCN(C(=O)C5(O)CC5)CC4)c(F)c3)ccc21 [1-[(4-{[2-fluoro-4-(1-methyl-1H-indol-5-yl)phenyl]carbonyl}piperazin-1-yl)carbonyl]cyclopropan-1-ol]

IC50 (FASN enzyme)	IC50 (PC3 cells; [1])	IC50 (FASN enzyme; FASN enzymatic assay, Table 2-2)	IC50 (PC3 cells; read-out: IC50 (uM) ≥ 0.5, 10% lipid reduced serum, 4 days, Table 3-2)	Structure (SMILES)
< 500 nM	< 0.5 µM			COc1nc2ccccc2cc1-c1ccc(C(=O)N2CCN(C(=O)C3(O)CC3)CC2)c(F)c1 [1-[(4-{[2-fluoro-4-(2-methoxyquinolin-3-yl)phenyl]carbonyl}piperazin-1-yl)carbonyl]cyclopropan-1-ol]
< 500 nM	< 0.5 µM			COc1ccc2nc(-c3ccc(C(=O)N4CCN(C(=O)C5(O)CC5)CC4)c(F)c3)ccc2c1 [1-[(4-{[2-fluoro-4-(6-methoxyquinolin-2-yl)phenyl]carbonyl}piperazin-1-yl)carbonyl]cyclopropan-1-ol]
< 500 nM	< 0.5 µM			O=C(c1ccc(-c2cc(F)c3[nH]ccc3c2)cc1F)N1CCN(C(=O)C2(O)CC2)CC1 [1-[(4-{[2-fluoro-4-(7-fluoro-1H-indol-5-yl)phenyl]carbonyl}piperazin-1-yl)carbonyl]cyclopropan-1-ol]
< 500 nM	< 0.5 µM			O=C(c1ccc(-c2cnc3ccccc3c2)cc1F)N1CCN(C(=O)C2(O)CC2)CC1 [1-[(4-{[2-fluoro-4-(quinolin-3-yl)phenyl]carbonyl}piperazin-1-yl)carbonyl]cyclopropan-1-ol]
< 500 nM	< 0.5 µM			O=C(c1ccc(-c2ccc3ncccc3c2)cc1F)N1CCN(C(=O)C2(O)CC2)CC1 [1-[(4-{[2-fluoro-4-(quinolin-6-yl)phenyl]carbonyl}piperazin-1-yl)carbonyl]cyclopropan-1-ol]
< 500 nM	< 0.5 µM			Cn1ccc2cc(-c3ccc(C(=O)N4CCN(C(=O)C5(O)CC5)CC4)cc3Cl)ccc21 [1-[(4-{[3-chloro-4-(1-methyl-1H-indol-5-yl)phenyl]carbonyl}piperazin-1-yl)carbonyl]cyclopropan-1-ol]
< 500 nM	< 0.5 µM			O=C(c1ccc(-c2cnc3ccccc3c2)c(Cl)c1)N1CCN(C(=O)C2(O)CC2)CC1 [1-[(4-{[3-chloro-4-(quinolin-3-yl)phenyl]carbonyl}piperazin-1-yl)carbonyl]cyclopropan-1-ol]
< 500 nM	< 0.5 µM			O=C(c1ccc(-c2ccc3ncccc3c2)c(Cl)c1)N1CCN(C(=O)C2(O)CC2)CC1 [1-[(4-{[3-chloro-4-(quinolin-6-yl)phenyl]carbonyl}piperazin-1-yl)carbonyl]cyclopropan-1-ol]
< 500 nM	< 0.5 µM			O=C(c1ccc(-c2cnc3ccccc3c2)c(F)c1)N1CCN(C(=O)C2(O)CC2)CC1 [1-[(4-{[3-fluoro-4-(quinolin-3-yl)phenyl]carbonyl}piperazin-1-yl)carbonyl]cyclopropan-1-ol]
< 500 nM	< 0.5 µM			Cc1cc(C(=O)N2CCN(C(=O)C3(O)CC3)CC2)ccc1-c1ccc2c(ccn2C)c1 [1-[(4-{[3-methyl-4-(1-methyl-1H-indol-5-yl)phenyl]carbonyl}piperazin-1-yl)carbonyl]cyclopropan-1-ol]
< 500 nM	< 0.5 µM			Cc1cc(C(=O)N2CCN(C(=O)C3(O)CC3)CC2)ccc1-c1cnc2ccccc2c1 [1-[(4-{[3-methyl-4-(quinolin-3-yl)phenyl]carbonyl}piperazin-1-yl)carbonyl]cyclopropan-1-ol]
	< 0.5 µM			COc1ccc(OC(F)(F)F)cc1-c1ccc(C(=O)N2CCN(C(=O)C3(O)CC3)CC2)cc1 [1-{[4-({4-[2-methoxy-5-(trifluoromethoxy)phenyl]phenyl}carbonyl)piperazin-1-yl]carbonyl}cyclopropan-1-ol]
< 500 nM				O=C(c1ccc(-c2cccc(NS(=O)(=O)C3CCOCC3)c2)cc1)N1CCN(C(=O)C2(O)CC2)CC1 [N-(3-{4-[4-(1-hydroxycyclopropanecarbonyl)piperazine-1-carbonyl]phenyl}phenyl)oxane-4-sulfonamide]
< 500 nM				O=C(Nc1noc2ccc(-c3ccc(C(=O)N4CCN(C(=O)C5(O)CC5)CC4)cc3)cc12)C1CC1 [N-(5-{4-[4-(1-hydroxycyclopropanecarbonyl)piperazine-1-carbonyl]phenyl}-1,2-benzoxazol-3-yl)cyclopropanecarboxamide]
< 500 nM				O=C(Nc1noc2cc(-c3ccc(C(=O)N4CCN(C(=O)C5(O)CC5)CC4)cc3)ccc12)C1CC1 [N-(6-{4-[4-(1-hydroxycyclopropanecarbonyl)piperazine-1-carbonyl]phenyl}-1,2-benzoxazol-3-yl)cyclopropanecarboxamide]
< 500 nM				O=C(NC1CC1)c1cccc(-c2ccc(C(=O)N3CCN(C(=O)C4(O)CC4)CC3)cc2)c1 [N-cyclopropyl-3-[4-({4-[(1-hydroxycyclopropyl)carbonyl]piperazin-1-yl}carbonyl)phenyl]benzamide]
< 500 nM				O=C(c1ccc(-c2cccc(S(=O)(=O)NC3CC3)c2)cc1)N1CCN(C(=O)C2(O)CC2)CC1 [N-cyclopropyl-3-[4-({4-[(1-hydroxycyclopropyl)carbonyl]piperazin-1-yl}carbonyl)phenyl]benzene-1-sulfonamide]
< 500 nM				CCOC(=O)Nc1cccc(-c2ccc(C(=O)N3CCN(C(=O)C4(O)CC4)CC3)cc2)c1 [ethyl N-(3-{4-[4-(1-hydroxycyclopropanecarbonyl)piperazine-1-carbonyl]phenyl}phenyl)carbamate]
< 500 nM				CC(C)OC(=O)Nc1cccc(-c2ccc(C(=O)N3CCN(C(=O)C4(O)CC4)CC3)cc2)c1 [propan-2-yl N-(3-{4-[4-(1-hydroxycyclopropanecarbonyl)piperazine-1-carbonyl]phenyl}phenyl)carbamate]

— patent publication US10457655B2, “Compounds and compositions for inhibition of FASN” (FORMA Therapeutics, Inc., priority 2013, dated 2019)
